Measured values as given in patent US5430150A, “Retroviral protease inhibitors” (American Cyanamid Company, priority 1992, dated 1995).

Assays:
[1] = biological target: HIV-1 protease (Human immunodeficiency virus type 1 group M subtype B, UniProt P04585); assay: biochemical; type: biochemical; conditions: Activity of Compounds as Enzyme Inhibitor
Protocol: IC50 values for enzyme inhibition are determined using HIV-1 and Amersham's HIV proteinase [^125 I]-scintillation proximity assay (SPA).
Amersham's HIV proteinase [^125 I]-SPA system is a commercial assay incorporating the scintillation proximity assay (SPA) principle available from Amersham International PLC, Bucks, England.
The SPA microspheres provided by Amersham have the substrate linked directly to the surface through a streptavidin-biotin link. The substrate is a 12 residue peptide designed specifically for this application utilizing current knowledge of known cleavage sites for the enzyme and analogue substrate studies. The sequence of the substrate is: [drawing 22]
The peptide is monoiodinated on the tyrosine residue and biotinylated through the epsilon-NH2 group on the lysine. It is linked to the SPA bead via a streptavidin-link. The beads are suspended in a buffer consisting of 5 mM DTT, 1 mM EDTA, 10% w/v glycerol, 0.05% W/v sodium azide, 0.01% v/v Triton X-100 in 25 mM sodium citrate buffer pH 5.5.
The enzyme cleaves at the Phe-Phe bond releasing the ^125 I fragment from the bead. This event causes the removal of detectable signal from the microsphere. […] The rate of reduction in signal is proportional to the activity of the enzyme. The obtained data is used to calculate the IC50 values found in Table 1.

[2] = system: HIV-1 strain IIIB in T lymphoid MT-2 cell lines; assay: inhibition of growth of HIV-1 strain IIIB in T lymphoid MT-2 cell lines (metabolic MTT dye); type: cell-based
Protocol: In Table 2, data is shown for the ability of these compounds to inhibit growth of HIV-1 strain IIIB in T lymphoid MT-2 cell lines. The cell line is challenged by free virons selected to result in 90-95% cell death (CPE) by day 5. The protease inhibitor compound is then added in the stated concentration. After 5 days, the surviving cells are measured using metabolic MTT dye.

[3] = mouse plasma level after IP or oral administration; type: in vivo; conditions: mice; for time for which plasma concentrations of >0.13 microgram/ml are achieved: aqueous liposomal formulation

CC[C@H](C)[C@H](NC(=O)[C@H](Cc1ccccc1)CC(O)CN1C[C@H]2CCCC[C@H]2C[C@H]1C(=O)NC(C)(C)C)C(=O)NCc1nc2ccccc2[nH]1 (single isomer, unassigned) [Example 24B, [3S-[2[alphaS*(1R*,2R*),gammaS*(or R*)],3alpha,4abeta,8abeta]]-N-[1-[[(1H-Benzimidazol-2-ylmethyl)amino]carbonyl]-2-methylbutyl]-3-[[(1,1-dimethylethyl)amino]carbonyl]decahydro-gamma-hydroxy-alpha-(phenylmethyl)-2-isoquinolinepentanamide]
IC50 [1]: 0.0728 µM | % Inhibition at concentration 0.010 μg/ml ([2]; 0.010 μg/ml, 5 days): 16.2% | % Inhibition at concentration 0.039 μg/ml ([2]; 0.039 μg/ml, 5 days): 81.4% | % Inhibition at concentration 0.156 μg/ml ([2]; 0.156 μg/ml, 5 days): 93.0% | % Inhibition at concentration 0.625 μg/ml ([2]; 0.625 μg/ml, 5 days): 94.7% | % Inhibition at concentration 2.5 μg/ml ([2]; 2.5 μg/ml, 5 days): 94.9% | inhibition of HIV-1 strain IIIB viral growth in MT-2 cell lines ([2]; concentration >0.13 microgram/ml): > 90% | time for which plasma concentrations of >0.13 microgram/ml are achieved ([3]; IP 8.3 mg/kg): 2.8 h | time for which plasma concentrations of >0.13 microgram/ml are achieved ([3]; IP 16.6 mg/kg): 4.2 h | time for which plasma concentrations >0.13 microgram/ml are maintained ([3]; oral 16.6 mg/kg (FIG. 1)): 2 h
